# Assay results: patent US4442093A, “Method for administering 24,25-dihydroxycholecalciferol to persons suffering from hypercalcemia” (Kureha Kagaku Kogyo Kabushiki Kaisha, priority 1981, dated 1984)
# No end group written: not given here.
# Columns and labels:
# calcium level in serum [1] = assay: Serum calcium in rats made hypercalcemic with Vitamin D3 (Example 1); type: in vivo, male Wistar rats; settings: for Calcium level in serum: 24R 100 µg/kg oral, calcitonin 4 MRCU/kg s.c.
# Experimental: To 16 subgroups of male Wistar rats of body weight of 150±40 g (one subgroup consisting of 5 rats), a solution of Vitamin D3 dissolved in corn oil at 600 micrograms/ml was orally administered once a day for continuous 4 days at a daily dose rate of 0.5 ml/100 g body weight to prepare the rats artifically suffering from hypercalcemia. After one day's fasting from the final administration of Vitamin D3, the calcium level in the serum of each rat of the first subgroup was on the average 13.5±0.4 mg/dl. The remaining 15 subgroups of the rats were divided into 3 groups each consisting of 5 subgroups and subjected to the following tests.
# To the rats of the second group, a solution of porcine calcitonin in a physiological saline solution containing 4% by weight of gelatin was subcutaneously injected at a dose rate of 4 MRCU/kg body weight instead of the solution of 24R,25-(OH)2 -D3 and they were treated as those of the first group.
# To the rats of the third group, only the same triglyceride ester as in the first group was orally administered, and they are treated in the same manner as in the first group.
# The calcium level of the respective sera of the thus collected blood was determined by OCPC method (Orthocresol Phthalein Complexone method) and shown in Table 1.
# [2] = system: inorganic phosphate level in serum; settings: after its administration; cited from earlier work
# calcium level in serum [3] = assay: Prevention of hypercalcemia in rats administered with 1-α-(OH)-D3 (Example 4); type: in vivo, male Wistar rats; settings: 1-α-(OH)-D3 10 µg/kg i.p. alone
# Text: In the present example, it is shown that 24R,25-(OH)2 -D3 has a function of preventing the occurrence of hypercalcemia on rats administered with 1-α-hydroxycholecalciferol (hereinafter referred to as 1-α-(OH)-D3).
# Six subgroups of male Wistar rats of 130±30 g of body weight were subjected to the test while dividing the rats into 3 groups, each group consisting of 2 subgroups and each subgroup consisting of 5 animals. To the rats of the first group, after fasting for a night, an ethanolic solution of 1-α-(OH)-D3 was intraperitoneally administered at a dose rate of 10 micrograms of 1-α-(OH)-D3 /kg body weight. To the rats of the second group, a solution of 24R,25-(OH)2 -D3 in the triglyceride ester used in Example 1 was orally administered at a dose rate of 100 micrograms/kg body weight simultaneously with the same administration of 1-α-(OH)-D3 as in the rats of the first group.
# The third group of the rats was used for control only with the oral administration of the triglyceride ester used in Example 1.
# thymus = assay: Weight ratio of thymus to body and number of thymocytes in rats given puromycin aminonucleoside (Example 11); type: in vivo, male JCL-Wistar rats; settings: 100 µg/kg/day oral 12 days with puromycin aminonucleoside 15 mg/kg s.c.
# Experimental: Thirty-two male JCL-Wistar rats in tenth week after birth were used in the present test while keeping them in a room at 21±1° C. and 60±5% RH with solid diet (CE 2) and water taken ad lib.
# They were divided equally into 4 groups (one group consisting of 8 animals), their treatments in the test being as follows:
# subcutaneous injection of puromycin aminonucleoside as in the second group and oral administration of 24R,25-(OH)2 -D3 dissolved in Panacete 810 once a day at a daily dose rate of 100 micrograms/kg for continuous 12 days.
# subcutaneous injection of puromycin aminonucleoside as in the second group and oral administration of 24S,25-(OH)2 -D3 dissolved in Panacete 810 once a day at a daily dose rate of 100 micrograms/kg for continuous 12 days.
# After uniformly loosing the thymus in phosphate buffer solution with a forcets and fully pipetting, the mixture was filtered through a stainless steel mesh (Tylar standard #200) and the filtrate containing the thymic cells was stained with Turk's solution. The thus stained specimen was subjected to counting under a microscope.
# gastric ulcer = assay: Prevention of gastric ulcer due to pyloric ligation (Example 9); type: in vivo, male Wistar rats; settings: 200 µg/kg i.p. once after pyloric ligation, 15 h
# Experimental: Twenty male Wistar rats of average body weight of 250 g were divided equally into two groups, and used in the following test:
# After 36 hour fasting, all the rats were subjected to pyloric ligation, and the rats of the first group were administered with 2 ml/kg of Panacete®810 (triglyceride ester of C8 and C10 -fatty acid, made by Nippon Oil & Fats Co., Ltd.) containing 0.2% by weight of ethanol intraperitoneally once just after ligation. The rats of the second group were administered with 24R,25-(OH)2 -D3 dissolved in Panacete®810 containing 0.2% by weight of ethanol intraperitoneally at a dose rate of 200 micrograms/kg body weight once just after ligation. After 15 hours of administration, all the rats were subjected to gastrectomy, and the presence or absence of the gastroparietal ulcer was examined on all the resected stomach.
# As a result, the occurrence of gastric ulcer was found on 9 rats of 10 rats of the first group, and on 2 rats of 10 rats of the second group.
# In a similar test, 24S,25-(OH)2 -D3 was used instead of 24R,25-(OH)2 -D3 to examine its effect in preventing the occurrence of gastric ulcer due to pyloric ligation. As a result, the occurrence of gastric ulcer was recognized on 3 rats of 10 rats of the group similarly treated to those of the second group.
# thymic cells = assay: Pattern of the size of thymic cells by FACS (Example 12); type: in vivo, rats; settings: 100 µg/kg/day oral 12 days with puromycin aminonucleoside
# Experimental: After feeding the rats (the same number and the same grouping) of the same strain and treating them in the same manner as in Example 11, their thymus was resected, and an analysis of the pattern of the size of the thymic cells was carried out while using Fluorescence Activated Cell Sorter (FACS II, made by Becton-Dickinson Co.) as follows:
# After loosing the resected thymus in phosphate buffer solution sufficiently with a pincette, pipetting well and passing the mixture through a standard #200 Tyler stainless steel mesh, the filtrate was treated with an aqueous 0.83% by weight ammonium chloride buffer solution containing tris-hydroxyaminomethane to carry out hemolysis of the erythrocytes intermingled therein followed by three times of washing with the phosphate buffer solution. After adjusting the concentration of the thus obtained thymic cell to 5×10^6 cells/ml with the addition of the phosphate buffer solution, the abovementioned analysis was carried out. The ratio of the number of living thymic cells to the total number of the thus obtained thymic cells was confirmed to be higher than 95% after staining with trypan blue and counting under microscope.
# [4] = system: mononucleates (lymphocytes) of peripheral blood; assay: Blastoid-transformation of rat lymphocytes in peripheral blood, 3H-TdR uptake (Example 13); type: in vivo
# Experimental: The effect of the present compound on the blastoid-transformation of rat lymphocytes in the peripheral blood was examined as follows: After mixing each of the blood specimens taken from the respective rats of the four groups in Example 11 added with heparin and RPMI-1640 culture medium at a weight ratio of 1:1, the mixture was added to Ficoll-Paque solution, and the thus obtained mixture was subjected to centrifugal separation at 400 G for 20 min to collect the layer of mononucleates. After washing the thus collected mononucleates three times with PRMI-1640 culture medium (in a liquid state), the washed mononucleates were suspended into RPMI-1640 culture medium added with 10% by weight of calf serum to be in concentration of 1.5×10^6 cells/ml. Hundred microliters of the thus prepared suspension was placed in the pit of Pharcon microtest II plate, and after adding a substance promoting cell division (hereinafter referred to as mitogen) and RPMI-1640 culture medium added with 10% by weight of calf serum to the thus placed suspension to make the total volume 200 microliters, the thus prepared mixture was incubated for 72 hours under a gas (a 95:5 by volume mixture of air and carbon dioxide saturated with moisture) flow at 37° C. ^3 H-methylthymidine of specific activity of 5 Ci/mmol was added to the mixture during incubation at the time 24 hours before the incubation was over in an amount corresponding to 0.5 micro Ci. After the incubation was over, the cells in the culture were collected by filtering the cultured mixture, and the amount of radioactive isotope uptaken into the cells was determined by a liquid scintillation counter. For reference, the mitogen used in the present test is concanavalin A for T-cell or lipopolysaccharide for B-cell.
# [5] = system: ulcer found on the duodenum; assay: Healing of acetic acid induced duodenal ulcer (Example 10); type: in vivo, male rats; settings: 20 µg/kg/day oral, 10 days
# Experimental: Fourty five male rats of body weight of 240 to 260 g were equally divided into three groups, each consisting of 15 animals, and they were subjected to an operation following the method of Okabe et al. (refer to Amer. J. Dig. Dia., 16, 277, 1971), in which under anesthesia by ether, a circular frame made of a metal was placed on the serosa 5 to 7 mm from the pylorus and 0.06 ml of gracial acetic acid was poured onto the round part within the frame and after 30 sec, the acetic liquid was removed with the frame.
# The thus operated rats of the first group were administered orally with a suspension of […] of 24R,25-(OH)2 -D3 in Panacete®810 containing 0.2% by weight of ethanol once a day for continuous 10 days from the third day of the operation at a daily dose rate of 20 micrograms of 24R,25-(OH)2 -D3 /kg. To the thus operated rats of the second group (control), only Panacete®810 was orally administered at a daily dose rate of 2 ml/kg for continuous 10 days.
# The thus operated rats of the third group were used in the comparative test. Namely, they were treated in the same manner as those of the first group except for administration of gefarnate (3,7-dimethyl-2,6-octadienyl-5,9,13-trimethyl-4,8,12-tetradecatrienoate) at a daily dose rate of 20 microgram/kg body weight in stead of 24R,25-(OH)2 -D3 in the first group.
# After finishing the final administration, all the rats were sacrificed by ether and their duodenum was taken out for autopsy. The length and the width of the ulcer found on the duodenum were measured, and their product with a unit of mm^2 was taken and named as the ulcer coefficient. The rate of healing of the ulcer was calculated by the following formula: [formula] wherein C is the ulcer coefficient of control and U is the ulcer coefficient of the group to which the present compound was administered.
# [6] = 100 µg/kg/day oral 12 days with puromycin aminonucleoside
molecule,measurement,setting,value
"calcitonin: porcine calcitonin in physiological saline solution containing 4% by weight of gelatin (CSNLSTCVLSAYWRNLNNFHRFSGMGFGPETP; ends and bridges not checked; cysteine pairing not given here; UniProt P01259 1-32, looked up)",effect on raised serum calcium after 2 hours,calcium level in serum [1]; 4 MRCU/kg s.c.,its effect was not recognized after 2 hours of its administration
same,Calcium level in serum,calcium level in serum [1]; 2 h after administration,10.8 ± 0.5 mg/dL
same,Calcium level in serum,calcium level in serum [1]; 5 h after administration,13.0 ± 0.4 mg/dL
same,Calcium level in serum,calcium level in serum [1]; 8 h after administration,13.4 ± 0.4 mg/dL
same,Calcium level in serum,calcium level in serum [1]; 12 h after administration,13.9 ± 0.5 mg/dL
same,Calcium level in serum,calcium level in serum [1]; 24 h after administration,13.4 ± 0.4 mg/dL
same,duration of strong reduction of serum inorganic phosphate level,[2],2 to 3 h
"C=C1/C(=C\C=C2/CCC[C@]3(C)[C@@H]([C@H](C)CCCC(C)C)CC[C@@H]23)C[C@@H](O)C[C@@H]1O [1-α-(OH)--D3, 1-α-hydroxycholecalciferol, reference compound]",Calcium level in serum,calcium level in serum [3]; after 10 hours,13.4 ± 0.6 mg/dL
same,Calcium level in serum,calcium level in serum [3]; after 18 hours,14.5 ± 0.5 mg/dL
"C=C1CC[C@H](O)C/C1=C/C=C1\CCC[C@]2(C)[C@@H]([C@H](C)CC[C@H](O)C(C)(C)O)CC[C@@H]12 [24S,25-(OH)2 -D3]",Number of thymocytes,thymus,(30 ± 4.5) × 10^7
same,occurrence of gastric ulcer,gastric ulcer,3 rats of 10 rats
same,number ratio of cells a little larger than normal cell to total thymic cells,thymic cells,the same as that of the control group
same,Uptake of 3H-TdR in presence of Concanavalin A,[4]; [6],3582 ± 362 cpm
same,Uptake of 3H-TdR in presence of Lipopolysaccharide,[4]; [6],3126 ± 351 cpm
same,"Number of mononucleate (ratio, first group = 1.00)","[4]; po, 0.1 mg/kg, 288 h",0.58 ± 0.15
"CC(C)=CCCC(C)=CCCC(C)=CCCC(=O)OCC=C(C)CCC=C(C)C [gefarnate, 3,7-dimethyl-2,6-octadienyl-5,9,13-trimethyl-4,8,12-tetradecatrienoate, reference compound]",ulcer coefficient,[5],7.5 mm^2
same,rate of ulcer healing,[5]; vs control,0%
